The numbers were not newly measured in publication PMC3076957 (Chemico-biological interactions, 2008), which cites them from elsewhere.

Series [1] has as its target T1, AKR1C3 (Homo sapiens, UniProt P42330).
T1 sequence (P42330 1-323): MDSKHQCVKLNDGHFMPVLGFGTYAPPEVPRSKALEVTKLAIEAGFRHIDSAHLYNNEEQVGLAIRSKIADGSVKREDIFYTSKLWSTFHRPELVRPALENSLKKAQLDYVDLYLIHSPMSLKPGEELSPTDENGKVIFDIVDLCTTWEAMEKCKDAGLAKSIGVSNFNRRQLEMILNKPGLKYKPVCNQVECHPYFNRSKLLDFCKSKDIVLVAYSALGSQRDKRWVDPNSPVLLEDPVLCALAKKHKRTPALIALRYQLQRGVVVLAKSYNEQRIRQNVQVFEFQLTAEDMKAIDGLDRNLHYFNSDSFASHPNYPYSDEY
The series can be described thus: enzyme inhibition assay. The settings on record: read-out: IC50 values (μM) / AKR1C3.

Series [2] has as its target T1, AKR1C3. The series can be described thus: inhibition of androstenedione reduction, Lineweaver-Burk. In kind it is biochemical.
Series [3] addresses T1, AKR1C3. The series can be described thus: inhibition of […],10-phenanthrenequinone reduction. It is filed as biochemical. Particulars: read-out: IC50 values (μM) / AKR1C3.
The target of the next series is AKR1C2 (Homo sapiens, UniProt P52895). The settings on record: read-out: IC50 values (μM) / AKR1C2.
Chain of AKR1C2 (P52895 whole entry): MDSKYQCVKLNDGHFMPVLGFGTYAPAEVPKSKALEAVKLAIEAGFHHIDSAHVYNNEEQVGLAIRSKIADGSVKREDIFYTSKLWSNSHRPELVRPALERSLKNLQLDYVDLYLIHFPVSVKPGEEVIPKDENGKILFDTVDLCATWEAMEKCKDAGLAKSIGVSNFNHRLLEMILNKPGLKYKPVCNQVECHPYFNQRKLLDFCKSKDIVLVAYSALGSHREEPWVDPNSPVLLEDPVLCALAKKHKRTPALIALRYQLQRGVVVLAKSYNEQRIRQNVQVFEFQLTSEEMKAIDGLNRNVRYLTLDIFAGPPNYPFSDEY

Regarding `O=C(O)c1ccc(C(=O)c2ccccc2)cc1` [4-Benzoyl-benzoic acid], the Ki on AKR1C3 [1] was 1.9 µM. As to `O=C(O)c1ccc(Nc2ccc([N+](=O)[O-])cc2[N+](=O)[O-])cc1` [4-Carboxy-2′,4′-dinitrodiphenylamine], the Ki on AKR1C3 [1] is 0.38 µM. For the compound `COc1ccc2c(c1)c(CCNC(C)=O)cn2C(=O)c1ccc(Cl)cc1` [CBM, N-(4-chlorobenzoyl)-melatonin], the Ki on AKR1C3 [2] is 6 µM.

With `Cc1ccc(Cl)c(Nc2ccccc2C(=O)O)c1Cl` [Meclofenamic Acid], the IC50 on AKR1C3 [3] was 0.7 µM. On to `COc1ccc2cc([C@H](C)C(=O)O)ccc2c1` [Naproxen], for which the IC50 at AKR1C2 was 1.2 µM.
